Measured values reported in paper PMC3353862.
Converted amounts (≈) assume the structure as drawn.

Legend:
S. pneumoniae = assay: Broth microdilution MIC testing; format: cell-based, Streptococcus pneumoniae; conditions: for MIC S. pneumo: S. pneumoniae; for MIC: Streptococcus pneumoniae, read-out: MIC S. pneumo
S. aureus = assay: Broth microdilution MIC testing; format: cell-based, Staphylococcus aureus; conditions: for MIC: Staphylococcus aureus, read-out: MIC S. aureus
E. faecalis = assay: Broth microdilution MIC testing; format: cell-based, Enterococcus faecalis; conditions: for MIC E. fae: E. faecalis; for MIC: Enterococcus faecalis, read-out: MIC E. fae
H. influenzae = assay: Broth microdilution MIC testing; format: cell-based, Haemophilus influenzae; conditions: for MIC H. flu: H. influenzae; for MIC: Haemophilus influenzae, read-out: MIC H. flu
[1] = tested on: E. coli modified with PMBN; assay: Broth microdilution MIC testing; format: cell-based, Escherichia coli; conditions: for MIC E. coli +PMBP: E. coli modified with PMBN; for MIC: Escherichia coli, read-out: MIC E. coli +PMBP
M. catarrhalis = assay: Broth microdilution MIC testing; format: cell-based, Moraxella catarrhalis; conditions: for MIC: Moraxella catarrhalis
[2] = tested on: bacterial protein synthesis (aminoacylation/translation system); assay: aminoacylation/translation (A/T) assay; format: biochemical; conditions: for IC50: A/T assay, Table 1, read-out: IC50
E. coli tolC mutants = assay: Broth microdilution MIC testing; format: cell-based, Escherichia coli; conditions: for MIC E. coli tolC: E. coli tolC mutants; for MIC: Escherichia coli, read-out: MIC E. coli tolC

Row | Structure (SMILES) | MIC S. pneumo (S. pneumoniae) [µg/mL] | MIC S. aureus (S. aureus) [µg/mL] | MIC E. fae (E. faecalis) [µg/mL] | MIC H. flu (H. influenzae) [µg/mL] | MIC E. coli +PMBP [1] [µg/mL] | MIC M. cat (M. catarrhalis) [µg/mL] | IC50 [2] [µM] | MIC E. coli tolC (E. coli tolC mutants) [µg/mL] | MIC (S. pneumoniae) [µg/mL] | MIC (S. aureus) [µg/mL] | MIC (E. faecalis) [µg/mL] | MIC (H. influenzae) [µg/mL] | MIC [1] [µg/mL] | MIC (M. catarrhalis) [µg/mL] | MIC (E. coli tolC mutants) [µg/mL] | biochemical activity in the A/T assay [2] | fold reduction of potency/biochemical activity in the A/T assay ([2]; relative to 321521)
1 | O=c1[nH]c(-c2ccccn2)nc2c1CN(Cc1c(F)cccc1F)CC2 [Compound 323198] | 16 (≈ 45.2 µM) | > 128 | > 128 | 8 (≈ 22.6 µM) | 64 (≈ 181 µM) | 1 (≈ 2.82 µM) | 2.7 | 32 (≈ 90.3 µM) |  |  |  |  |  |  |  |  | 
2 | Oc1nc(-c2ccccn2)nc2c1CN(Cc1ccc(F)cc1)CC2 [Compound 321521] |  |  |  |  |  |  | 2.4 |  | 16 (≈ 47.6 µM) | 128 (≈ 381 µM) | 16 (≈ 47.6 µM) | 4 (≈ 11.9 µM) | 64 (≈ 190 µM) | 0.5 (≈ 1.49 µM) | 16 (≈ 47.6 µM) |  | 
3 | O=c1[nH]c(-c2ccccn2)nc2c1CN(Cc1ccc(Cl)cc1)CC2 [Compound 323216] | 4 (≈ 11.3 µM) | 16 (≈ 45.3 µM) | 32 (≈ 90.7 µM) | 2 (≈ 5.67 µM) | 8 (≈ 22.7 µM) | ≤0.12 | 1.1 | 8 (≈ 22.7 µM) |  |  |  |  |  |  |  |  | 
4 | COc1cccc(CN2CCc3nc(-c4ccccn4)[nH]c(=O)c3C2)c1OC [Compound 323223] | 32 (≈ 84.6 µM) | > 128 | > 128 | 32 (≈ 84.6 µM) | 64 (≈ 169 µM) | 4 (≈ 10.6 µM) | 14.7 | 128 (≈ 338 µM) |  |  |  |  |  |  |  |  | 
5 | COc1cccc(CN2CCc3nc(-c4ccncc4)nc(O)c3C2)c1 [Compound 321388] |  |  |  |  |  |  | > 300 |  | > 128 | > 128 | > 128 | > 128 | > 128 | > 128 | > 128 |  | 
6 | CCOc1cc2c(cc1CN1CCc3nc(-c4ccccn4)[nH]c(=O)c3C1)OCO2 [Compound 323199] | 16 (≈ 39.4 µM) | 128 (≈ 315 µM) | 128 (≈ 315 µM) | 16 (≈ 39.4 µM) | 32 (≈ 78.7 µM) | 1 (≈ 2.46 µM) | 1.1 | 32 (≈ 78.7 µM) |  |  |  |  |  |  |  |  | 
7 | O=C(c1ccc(Cl)cc1)N1CCc2nc(-c3ccccn3)[nH]c(=O)c2C1 [Compound 323353] |  |  |  |  |  |  | 1.7 |  | 128 (≈ 349 µM) | > 128 | > 128 | 32 (≈ 87.2 µM) | 128 (≈ 349 µM) | 8 (≈ 21.8 µM) | 128 (≈ 349 µM) |  | 
8 | Cn1c(=O)n(C)c2cc(CN3CCc4nc(-c5ccccn5)[nH]c(=O)c4C3)ccc21 [Compound 323213] | > 128 | > 128 | > 128 | > 128 | > 128 | > 128 | 2.4 | > 128 |  |  |  |  |  |  |  |  | 
9 | Cc1cccc(-c2nc3c(c(=O)[nH]2)CN(Cc2ccc(Cl)cc2)CC3)n1 [Compound 332052] |  |  |  |  |  |  | > 300 |  | > 128 | > 128 | > 128 | > 64 | > 128 | 32 (≈ 87.2 µM) | > 128 | completely abolished activity | 
10 | COc1cccc(CN2CCc3nc(-c4ccccn4)[nH]c(=O)c3C2)c1O [Compound 323197] | 128 (≈ 351 µM) | > 128 | > 128 | 32 (≈ 87.8 µM) | > 128 | 16 (≈ 43.9 µM) | 4.4 | > 128 |  |  |  |  |  |  |  |  | 
11 | O=c1[nH]c(-c2cccs2)nc2c1CN(Cc1ccc(Cl)cc1)CC2 [Compound 332057] |  |  |  |  |  |  | 101 |  | > 128 | > 128 | > 128 | > 128 | > 128 | > 128 | > 128 |  | over 40 fold
12 | COc1cc(CN2CCc3nc(-c4ccccn4)[nH]c(=O)c3C2)cc2c1OCO2 [Compound 323205] | 32 (≈ 81.5 µM) | > 128 | 128 (≈ 326 µM) | 16 (≈ 40.8 µM) | 64 (≈ 163 µM) | 4 (≈ 10.2 µM) | > 300 | 64 (≈ 163 µM) |  |  |  |  |  |  |  |  | 
13 | Cc1cc(CN2CCc3nc(-c4ccccn4)[nH]c(=O)c3C2)cc(C)c1O [Compound 323204] | 128 (≈ 353 µM) | > 128 | > 128 | 32 (≈ 88.3 µM) | > 128 | 64 (≈ 177 µM) | 2.1 | > 128 |  |  |  |  |  |  |  |  | 
14 | C=CCOc1ccccc1CN1CCc2nc(-c3ccccn3)[nH]c(=O)c2C1 [Compound 323194] | 8 (≈ 21.4 µM) | 64 (≈ 171 µM) | 64 (≈ 171 µM) | 8 (≈ 21.4 µM) | 16 (≈ 42.7 µM) | 1 (≈ 2.67 µM) | 3.4 | 16 (≈ 42.7 µM) |  |  |  |  |  |  |  |  | 
15 | COc1ccc(OC)c(CN2CCc3nc(-c4ccccn4)[nH]c(=O)c3C2)c1 [Compound 323191] | 32 (≈ 84.6 µM) | > 128 | 128 (≈ 338 µM) | 32 (≈ 84.6 µM) | 64 (≈ 169 µM) | 4 (≈ 10.6 µM) | > 300 | 128 (≈ 338 µM) |  |  |  |  |  |  |  |  | 
16 | CCOCc1cc(CN2CCc3nc(-c4ccccn4)[nH]c(=O)c3C2)ccc1OC [Compound 323208] | 32 (≈ 78.7 µM) | > 128 | > 128 | 64 (≈ 157 µM) | 64 (≈ 157 µM) | 4 (≈ 9.84 µM) | 2.7 | 64 (≈ 157 µM) |  |  |  |  |  |  |  |  | 
